How the values were obtained:
Assay type in all cases: in vivo, rat
[1] = Evaluation of pharmacokinetics after topical eye drops; conditions: rats, topical eye drops 1 mg/mL in castor oil over four to seven days, expected trough, n = 2; for Mean concentration of test compound, Back of the eye / Mean concentration of test compound, Cornea / Mean concentration of test compound, Lacrimal gland and duct / Mean concentration of test compound, Lens and humor: wet tissue weight
Method: Evaluation of Pharmacokinetics
To evaluate the pharmacokinetics of test substances in vivo, these test substances are dissolved in appropriate formulation vehicles (e.g. castor oil). The test substances are then administered to rats topically as eye drops over four to seven days. Administered doses range usually between 0.1 to 5 mg/mL. Blood samples and ocular tissue samples are taken at the time of expected trough concentration, i.e. just before the next dosing would have occurred. Blood samples are retrieved via exsanguination in vials containing appropriate anticoagulants, such as lithium heparinate or potassium EDTA. Plasma is generated from the blood via centrifugation. Eyes are enucleated and briefly washed in PBS to remove possible remains of the topical formulation. Eyes are dissected and tissues of interest, e.g. cornea, lacrimal gland and duct, lens and humor and back of the eye tissue, are collected separately. Ocular tissues are pooled per individual animal, diluted in appropriate amounts of 0.9% NaCl in water and homogenized using a Tissuelyzer or equivalent system. The quantitative measurement of the test substances in the samples is performed using calibration curves in the respective matrices. The protein content of the samples is precipitated using acetonitrile or methanol. Thereafter, the samples are separated using HPLC in combination with reversed phase chromatography columns. The HPLC system is coupled to a triple quadrupole mass spectrometer via an electrospray interface. Particularly, HPLC was performed using a C18 column (e.g. Phenomenex Kinetex C18 5 mm 5 μm 2.1×50) and a mixture of 10 mM ammonium acetate pH6.8 and acetonitrile in a gradient with an increasing fraction of organic solvent. The retention time for the compound of example 2 was for example ca. 2.6 min.
Data: Mean concentration of test compound (μg/L of plasma or μg/kg of wet tissue weight), samples with concentrations below the lower limit of quantification (LOQ) are denoted as “<LOQ”, n corresponds to the number of the treated animals

[2] = tested on: Sprague Dawley rats; experiment: Lacrimal gland removal model, corneal nerve density measurement (IVCM); conditions: rats after lacrimal gland removal; treatment started two weeks post removal, compared to vehicle (FIG. 2)
Method: (§1) Sprague Dawley rats were anesthetized by intraperitoneal injection of 75 mg/kg ketamine +7.5 mg/kg xylazine hydrochloride. After removal of the facial hair, a 2 mm incision was carefully made between temporal lid margin and zygomatic arch. Bluntly separating the underlying tissue, exposing the fascia covering the intra-orbital lacrimal gland, avoiding the nerves and blood vessels. A small incision was made on the fascia, and the intra-orbital gland was gently pulled out and excised. The incision was sutured with a 8-0 polysorb suture and the skin was closed with a 5-0 polysorb suture (Ethilon; Ethicon Inc, Somerville, N.J.). A 3 mm incision was made just below the earlobe, and the extra-orbital lacrimal gland was pulled out and excised along its stem. This incision was closed in a manner similar as described above.
Nerve Density Measurement: […]

[3] = tested on: Sprague Dawley rats; experiment: Lacrimal gland removal model with pain behavior read out (wipe test); conditions: rats after lacrimal gland removal; after two and four weeks of treatment, compared to vehicle (FIG. 1)
Method: Lacrimal Gland Removal Model with Pain Behavior Read Out
as §1
Acclimate rat in a quiet, clean, clear cage for 15 minutes. Gently hold head of rat, add one drop of 5M NaCl in the rat right eye, and start count wipes (front limb wipe across the face) for 30 seconds. Repeat wipe test in left eye. Wash each eye with 10 ml NS. […] The number of eye wipes over a period of thirty seconds was determined for each animal and averaged at various timepoints. […]

CC(=O)N(c1ccc(F)cc1)c1cc(NC(=O)Cc2cccc(F)c2Cl)ccn1 [Example 2, N-{4-[2-(2-chloro-3-fluorophenyl)acetamido]pyridin-2-yl}-N-(4-fluorophenyl)acetamide]
Mean concentration of test compound, Plasma [1]: 0.4 ng/mL
Mean concentration of test compound, Back of the eye [1]: 13.8 µg/kg
Mean concentration of test compound, Cornea [1]: 44.9 µg/kg
Mean concentration of test compound, Lacrimal gland and duct [1]: 17.4 µg/kg
Mean concentration of test compound, Lens and humor [1]: 1.8 µg/kg
Corneal nerve density (fold difference from baseline) [2]: a decline in nerve density could be observed
Eye wipe count (5M NaCl, 30 seconds) [3]: no apparent further increase in wipe count

N#Cc1cnn(-c2ccc(NC(=O)Cc3ccccc3Cl)cc2S(N)(=O)=O)c1 [2-(2-Chlorophenyl)-N-[4-(4-cyano-1H-pyrazol-1-yl)-3-sulfamoylphenyl]acetamide, reference compound]
Mean concentration of test compound, Plasma [1]: 2.37 ng/mL
Mean concentration of test compound, Back of the eye [1]: 14.5 µg/kg
Mean concentration of test compound, Cornea [1]: 13.4 µg/kg
Mean concentration of test compound, Lacrimal gland and duct [1]: 33.4 µg/kg
Mean concentration of test compound, Lens and humor [1]: <4.0 µg/kg

Source: US20230270729A1, “USE OF N-[…] HAVING P2X4 RECEPTOR ANTAGONISTIC ACTIVITY FOR TREATING CERTIAN OCULAR DISORDERS” (Bayer Aktiengesellschaft, priority 2020, published 2023)
